Laboratory results reported in US9695102B2, “Alkali metal cinnamate powder and method for preparation” (Purac Biochem BV, priority 2009, dated 2017).

Experiments:
Assay type in all cases: physicochemical
[1] = Average moisture content of resulting powder; conditions: resulting powder after drying
[2] = Hausner ratio from tapped and aerated bulk density, Micron Powder Characteristics Tester; conditions: for Hausner Ratio: from tapped and aerated bulk density, flowability; for Tapped Bulk Density: tapped powder; for Aerated Bulk Density: untapped powder
Procedure: (§1) These are all standard measurements described in various text and hand books on powders and their properties. The various measurements were done using a Micron Powder Characteristics Tester™ (Model PT-N) from Hosokawa Micron International Inc.
(§2) The Hausner ratio is determined by measurement of the tapped and untapped (or aerated) bulk density. The angle of repose is determined by measurement of the angle of a cone of powder that is formed by pouring the powder through a glass funnel.

[3] = Particle size distribution, Malvern Mastersizer 2000 laser diffraction; set-up: D (0.1) / D (0.5) / D (0.9) / D [3.2] / D [4.3]: unit not given here
From the text: Particle size distribution has been measured with a Malvern Mastersizer 2000® particle size analyzer Measurement. Measuring principle is based on laser diffraction.

[4] = Angle of spatula, Micron Powder Characteristics Tester
Procedure: as §1
The angle of spatula is determined by measurement the difference in the angle of powder—that stays behind on a spatula when a container with said spatula on the bottom and filled with said powder is lowered and the spatula stays on the same height—and the angle of the powder on said spatula after the spatula was tapped by a weight.

[5] = Angle of repose, Micron Powder Characteristics Tester
Procedure: as §1, §2

SMILES | average moisture content [1] | Hausner Ratio [2] | Hausner Ratio ([2]; listed as Commercially available potassium cinnamate) | Tapped Bulk Density [2] [kg m^−3] | Aerated Bulk Density [2] [kg m^−3] | D (0.1) [3] | D (0.5) [3] | D (0.9) [3] | D [3.2] [3] | D [4.3] [3] | Span (—) [3] | Carr class ([2]; Carr flowability scale based on compaction) | Angle of spatula [index] ([4]; flowability index word) | Angle of spatula ([4]; powder on spatula before and after tapping) | Angle of repose ([5]; cone of powder poured through glass funnel) | Angle of repose [index] ([5]; flowability index word)
O=C([O-])C=Cc1ccccc1.[K+] [Experiment 1, potassium cinnamate] | less than 2 wt % |  |  |  |  |  |  |  |  |  |  |  |  |  |  | 
O=C([O-])C=Cc1ccccc1.[K+] [Experiment 2, potassium cinnamate] | about 0.5 wt % |  |  |  |  |  |  |  |  |  |  |  |  |  |  | 
O=C([O-])C=Cc1ccccc1.[K+] [Potassium cinnamate commercially available] |  | 1.66 | about 1.66 | 527 | 318 | 44 | 240 | 601 | 89 | 286 | 2.32 |  |  |  |  | 
O=C([O-])C=Cc1ccccc1.[K+] [Potassium cinnamate of the present disclosure] |  | 1.15 |  | 945 | 823 | 114 | 192 | 320 | 178 | 206 | 1.07 | Good | normal | 48 | 35.6 | good
